From ChEMBL document CHEMBL1127891, “Benzopyran potassium channel activators related to cromakalim - heterocyclic amide replacements at position 4” (1994)

What was measured:
Assay type in all cases: functional
Rattus norvegicus [1] = test: Tested for antihypertensive activity expressed as max fall in BP in spontaneously hypertensive rats (SHR), at the dose of 0.3 mg/kg
Rattus norvegicus [2] = test: Tested for antihypertensive activity expressed as max fall in BP in spontaneously hypertensive rats (SHR), at the dose of 1 mg/kg
Rattus norvegicus [3] = test: Tested for antihypertensive activity expressed as max fall in BP in spontaneously hypertensive rats (SHR), at the dose of 3.0 mg/kg
Rattus norvegicus [4] = test: Tested for antihypertensive activity expressed as max fall in BP in spontaneously hypertensive rats (SHR), at the dose of 0.1 mg/kg
Rattus norvegicus [5] = test: Tested for antihypertensive activity expressed as max fall in BP in spontaneously hypertensive rats (SHR), at the dose of 10.0 mg/kg

| SMILES | Max fall in blood pressure (Rattus norvegicus [1]) | Max fall in blood pressure (Rattus norvegicus [2]) | Max fall in blood pressure (Rattus norvegicus [3]) | other results |
| --- | --- | --- | --- | --- |
| Cn1ncnc1N[C@@H]1c2cc(C#N)ccc2OC(C)(C)[C@H]1O | 22 | 35 |  |  |
| C/N=C(\NC#N)N[C@@H]1c2cc(C#N)ccc2OC(C)(C)[C@H]1O | 16 | 41 |  |  |
| Cc1noc(N[C@@H]2c3cc(C#N)ccc3OC(C)(C)[C@H]2O)n1 |  |  | 31 |  |
| CC1(C)Oc2ccc(C#N)cc2[C@@H](N2CCCC2=O)[C@@H]1O [CROMAKALIM] | 39 | 47 |  | Max fall in blood pressure (Rattus norvegicus [4]): 13 |
| CC1(C)Oc2ccc(C#N)cc2[C@@H](Nc2n[s+]([O-])nc2N)[C@@H]1O (some centres not stated) |  |  | 20 |  |
| CC1(C)Oc2ccc(C#N)cc2[C@@H](Nc2nc(N)no2)[C@@H]1O |  | 16 | 32 |  |
| CC1(C)Oc2ccc(C#N)cc2[C@@H](Nc2n[nH]c(N)n2)[C@@H]1O |  |  | 19 |  |
| Cn1nc(N[C@@H]2c3cc(C#N)ccc3OC(C)(C)[C@H]2O)nc1N |  |  |  | Max fall in blood pressure (Rattus norvegicus [5]): 33 |
| Cc1nc(N[C@@H]2c3cc(C#N)ccc3OC(C)(C)[C@H]2O)n(C)n1 |  | 22 | 37 |  |
| Cn1nc(N)nc1N[C@@H]1c2cc(C#N)ccc2OC(C)(C)[C@H]1O | 56 |  |  | Max fall in blood pressure (Rattus norvegicus [4]): 30 |
